From patent US20210378926A1, “A TOPICAL COMPOSITION” (priority 2018, published 2021)

System: S. hominis (ATCC 27844)
Assay: Malodor Assay (H2S production, lead acetate paper blackening)
Assay type: cell-based
Conditions: S. hominis culture in TSB with 0.1% L-cysteine-HCl, 96 well plate, 37° C. for about 16 hours; blackening of lead acetate paper scored 0 to 10 versus control (completely black); ingredient amounts in ppm as per Table 1
Description: The efficacy of different ingredients and combinations were tried using the Malodor Assay protocol with S. hominis (ATCC 27844) as described below:
The malodour assay was done in a 96 well plate (Nunc™, ThermoFisher). First, a lead acetate paper was prepared as follows. A Whatman™ (No. 1) filter paper (150 mm, Cat No. 1001-150) was taken and cut to match the top cross-sectional dimension of the 96 well plate. 1% Lead acetate (Hi Media, RM 757) solution was prepared in distilled water and the Whatman™ filter paper was soaked in the prepared lead acetate solution. The excess solution from the filter paper was drained and allowed to dry in a Laminar Air Flow for 1 hour. After drying, the filter paper was wrapped in an Aluminium foil and autoclaved at 121° C. for about 20 minutes. This lead acetate paper was used for the assay to capture the malodour generation at the later stage.
A TSB broth solution was prepared by adding 0.1% L-cysteine-HCl (Sigma, C1276) into TSB (Bacto, 211825, 30 g/L) and autoclaved. After that, the 96 well plate was taken followed by addition of 180 μL/well of the above prepared TSB solution into the wells. Then 20 μL/well of S. hominis culture ([…]) was added to the wells. Different ingredient and/or mix of ingredients as per following Table 1 were added into the wells along with a control (only distilled water and bacteria) as per the required concentration (as mentioned in Table 1). Finally, the lead acetate paper that was prepared previously was placed on the wells of the 96-well plate and the lid was closed. This plate was then incubated in an incubator (LABTOP, bacteriological incubator) at 37° C. for about 16 hours. The lid of the plate was opened after the incubation and observed the lead acetate paper for any visual change in colour. […] The results and the effect of actives were compared with the control (completely black).
The results of these experiments are expressed in terms of “% reduction” in H2S production which is determined from the blackening of the spot as explained above. Each spot with different test samples has been compared with the control (completely black) sample. It was then rated on a scale of 0 to 10 (10 being completely black as like control and 0 is no blackening). From the score the percentage reduction was evaluated e.g. if the blackening of any sample is as dark as control then the score given was “8-10” and accordingly % reduction is <20%.

Structure (SMILES)	% reduction in H2S production
O=S(=O)([O-])[O-].[Fe+2] [G, FeSO4]	<20%
C=CCc1ccc(O)c(-c2cc(CC=C)ccc2O)c1 [D, magnolol]	<20%
O=S(=O)([O-])[O-].[Cu+2] [K, CuSO4]	20-40%
O=S(=O)([O-])[O-].[Cu+2] [J, CuSO4]	<20%
C=CCc1ccc(O)c(-c2ccc(O)c(CC=C)c2)c1 [C, honokiol]	20-40%
